The conditions of series [1]: estimated; called medium value.
Experiment in series [2]: not given
This is another data set of the same source.

For `CCCCNC(=O)[N-]S(=O)(=O)c1ccc(C)cc1.[Ag+]` [AgTol, silver tolbutamide], the “dissociation constant (pK)” value in series [1] is recorded as > 3.3. The “solubility compared with silver sulfadiazine” value (relative to silver sulfadiazine) is given as “considerably greater than that of silver sulfadiazine”. Where the note is “variety of organic solvents, including solvents containing polymers”, the solubility result was “soluble in a variety of organic solvents”. In addition, in series [2] (as a solid), the light stability result was “light stable”. In series [2] (present in a coating), the photostability result is “not photostable”.

Source of the values: patent publication US20090289071A1, “Flow Through Components with an Antimicrobial Lining” (THE BOC GROUP, INC., priority 2004, published 2009).
